Measured values: patent US20160297763A1, “Heteroaryl hydroxamic acid derivatives and their use in the treatment, amelioration or prevention of a viral disease” (priority 2011, published 2016)
Read-outs that look alike come from different tables or passages of the source.

Legend:
PA-Nter = PA-Nter (Influenza A virus, UniProt P31343); assay: Biacore PA-Nter binding; conditions: activity conc 50
[1] = system: influenza A virus A/Aichi/2/68 (H3N2); assay: Cytopathic effect (CPE) assay H3N2; type: cell-based, influenza A virus (H3N2) on MDCK cells; conditions: for inhibition at 2 µM: H3N2, activity conc 2 (μM per method); for inhibition at 20 µM: H3N2, activity conc 20 (μM per method); for inhibition at 50 µM: H3N2, read-out: CPE H3N2 reduction (%), activity conc 50 (μM per method); for inhibition at 2.5 µM: H3N2, activity conc 2.5 (μM per method)
Summary of the method: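 MDCK cells infected with A/Aichi/2/68 (H3N2) at MOI 0.05 in trypsin-containing medium, compound (generally 25 μM and 250 μM, 1% DMSO) added together with virus; 48 hrs at 37° C. Viability by ATP luminescence; % CPE reduction = infected-treated minus infected-untreated RLU, normalized to uninfected-treated viability.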

[2] = molecular target: PB2 cap binding domain (CBD) (Influenza A virus, UniProt Q9Q0V1); assay: biochemical; set-up: species or system avian H5N1 influenza virus
[3] = Influenza A virus, H3N2, activity conc 5 (μM per method), read-out: CPE H3N2 reduction (%)
[4] = Influenza A virus, H3N2, read-out: CPE H3N2 IC50
[5] = Influenza A virus, read-out: CPE H3N2 reduction (%)

Sequence of PB2 cap binding domain (CBD) (Q9Q0V1 318-483 limits assumed): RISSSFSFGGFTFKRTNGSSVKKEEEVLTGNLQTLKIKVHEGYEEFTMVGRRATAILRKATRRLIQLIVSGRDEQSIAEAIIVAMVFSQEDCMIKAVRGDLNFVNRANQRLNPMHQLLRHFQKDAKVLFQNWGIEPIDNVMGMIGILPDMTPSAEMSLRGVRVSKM

## Cc1c(-c2ccccc2)sc2nc(N)[nH]c(=O)c12 [SAV-7475]
PA-Nter
  Biacore PA-Nter Binding (RU): 13.16 RU
[1]; [3]
  inhibition at 5 µM: 8.9%
[1]; [4]
  IC50: 21 µM
[2]
  Kd: 4.6 µM

## Cc1c(-c2ccc(F)cc2F)sc2nc(N)[nH]c(=O)c12 [SAV-7610]
[1]; [5]
  inhibition at 2 µM: -1.6%
ALPHA screen
  EC50: 0.62 µM
[2]
  Kd: 3.8 µM

## Cc1c(-c2ccc(Cl)c(C#N)c2)sc2nc(N)[nH]c(=O)c12 [SAV-7602]
[1]; [5]
  inhibition at 20 µM: 67.9%
[2]
  Kd: 1.7 µM

## Cc1c(-c2cccc(Cl)c2)sc2nc(N)[nH]c(=O)c12 [SAV-7580]
[1]; Influenza A virus, H3N2, read-out: CPE H3N2 IC50 [μM]
  IC50: 11 µM
[1]; activity conc 2 (μM per method)
  CPE H3N2 reduction (%): 89.8%
[2]
  Kd: 8.9 µM

## Cc1c(-c2ccc(Cl)nc2)sc2nc(N)[nH]c(=O)c12 [SAV-7632]
[1]; Influenza A virus
  inhibition at 50 µM: 53%
[2]
  Kd: 0.75 µM

## Cc1ccc(-c2sc3nc(N)[nH]c(=O)c3c2C)cc1 [SAV-7585]
[1]; [5]
  inhibition at 2.5 µM: 28.9%
[1]; [4]
  IC50: 3.5 µM
[2]
  Kd: 2 µM

## Cc1c(-c2ccccc2F)sc2nc(N)[nH]c(=O)c12 [SAV-7598]
[1]; [5]
  inhibition at 2 µM: 11.4%
[2]
  Kd: 3.7 µM

## Cc1c(-c2ccc(Cl)c(C(=O)N(C)C)c2)sc2nc(N)[nH]c(=O)c12 [SAV-7626]
[1]; Influenza A virus, H3N2, activity conc 25 (μM per method), read-out: CPE H3N2 reduction (%)
  inhibition at 25 µM: -4.6%
[2]
  Kd: 6.4 µM

## Cc1c(-c2cc(CN(C)C)ccc2F)sc2nc(N)[nH]c(=O)c12 [SAV-7630]
[1]; Influenza A virus
  inhibition at 50 µM: 23.2%
[2]
  Kd: 57 µM

## CC1=C(c2cccc(F)c2)SC2N=C(N)NC(=O)C12 (centres unmarked) [SAV-7606]
[1]; [3]
  inhibition at 5 µM: 21.8%
[2]
  Kd: 8 µM

## Cc1c(-c2cnccn2)sc2nc(N)[nH]c(=O)c12 [SAV-7608]
[1]; Influenza A virus, H3N2, activity conc 10 (μM per method), read-out: CPE H3N2 reduction (%)
  inhibition at 10 µM: 3.8%
[2]
  Kd: 5.7 µM

## Cc1cccc(-c2sc3nc(N)[nH]c(=O)c3c2C)c1 [SAV-7607]
[1]; [5]
  inhibition at 2 µM: -0.4%
[2]
  Kd: 5.4 µM

## Nc1nc2sc(-c3ccccc3)c(Br)c2c(=O)[nH]1 [SAV-7631]
[1]; Influenza A virus, H3N2, read-out: CPE H3N2 reduction (%), activity conc 5 (μM per method)
  inhibition at 5 µM: 4%
[2]
  Kd: 0.66 µM

## Cc1c(-c2ccccc2)sc2nc(NCCO)[nH]c(=O)c12 [SAV-7577]
[1]; [5]
  inhibition at 20 µM: 2.85%
[2]
  Kd: 6.8 µM

## Cc1c(-c2ccnc(C(F)(F)F)c2)sc2nc(N)[nH]c(=O)c12 [SAV-7625]
[1]; [5]
  inhibition at 2.5 µM: -4%
[2]
  Kd: 12 µM
